Measurements published in article PMC9374667 (Communications Biology, 2022).
Several values for one entry are separate records, joined by “and”; a condition that tells them apart may be missing. Equal entries are not always repeated.

Experiments:
TNF-α and IL-6 = TNF-α and IL-6 in supernatant of TNF-α induced 3T3-L1 adipocytes (ELISA); type: cell-based, Murine; parameters: levels of TNF-α / levels of IL-6: unit not given here
Experimental: We next examined the role of BJ on TNF-α induced inflammation of differentiated 3T3-L1 adipocytes.
The serum was collected by centrifugation at 3000 × g at 4 °C for 15 min and stored at −80 °C until analysis. TG, TC, LDL-C, HDL-C, and FFA were routinely tested on a Chemray 240 automatic biochemical analyzer (Chemray 240, Shenzhen, China). Serum levels of mouse adiponectin, interleukin6 (IL-6), tumor necrosis factor-α (TNF-α) were measured using commercial enzyme-linked immunosorbent assay (ELISA) kits (Nanjing Jiancheng Bioengineering Institute, Nanjing, China) and according to the manufacturer’s instructions. The levels of IL-6, TNF-α in 3T3-L1 adipocyte culture supernatant were also detected by ELISA.

glycerol release = assay: Glycerol release in eWAT of db/db mice (isoproterenol); type: in vivo; parameters: Glycerol release in eWAT (Figure 4m): unit not given here
Experimental: The epididymal adipose tissue was dissected, the fresh adipose tissue was weighed and rapidly rinsed with PBS. The adipose tissue was cut and incubated with isoproterenol (10 μM) for 2 h, and homogenized in a cold cleavage buffer to prepare the adipose tissue homogenate. Then the homogenate was centrifuged at 12,000 × g at 4 °C for 15 min, and the supernatant was collected. […] Then the cells were lysed in a petri dish, scraped off, and centrifuged at 12,000 × g at 4 °C for 15 min before the supernatant was collected. […] And concentrations were further standardized according to protein concentration.

db/db mice [1] = assay: Serum ASAT, ALAT, BUN and Cr (toxicity) in db/db mice; type: in vivo; settings: db/db mice
db/db mice [2] = assay: Weekly fasting glucose levels of db/db mice; type: in vivo; settings: for Weekly fasting glucose levels of db/db mice (Figure 5a): BBR 150mg/kg, individual mice 1-10, in mmol/L
Experimental: The lean wild type control and the db/db control mice were given equal vehicle volume (0.5% CMC-Na solution). All mice were monitored for food intake, body weight, and fasting blood glucose during the 35-day trial. Glucose tolerance test (GTT) and insulin resistance test (ITT) were performed at 4 and 5 weeks of treatment, respectively. Metabolic analysis was performed at 5 weeks of treatment. At the end of the study, blood samples were taken through the retroorbital venous sinus of mice, fat depots (brown fat, inguinal subcutaneous fat, epididymal fat, perirenal fat and mesenteric fat depot) were dissected, weighed, and immediately frozen in liquid nitrogen and stored at −80 °C until required. Weight of fat depots are expressed in percentage (fat depots weight /bodyweight * 100%).

db/db mice [3] = assay: HE staining of epididymal adipose tissue, adipocyte size; type: in vivo
Experimental: (§1) The adipose tissue was fixed overnight in 4% paraformaldehyde, then embedded in paraffin and cut into 5 µm thick slices. Tissue sections were stained with hematoxylin and eosin (H&E). For immunohistochemistry, sections were incubated with primary antibodies against F4/80 (1:100 dilution) diluted in the blocking solution at 4 °C overnight. The tissue sections were then incubated with the horseradish peroxidase (HRP)-conjugated secondary antibody at room temperature for 2 h. Finally, the sections were developed with diaminobenzidine (DAB) and counterstained with hematoxylin. Images were obtained under a microscope. To quantify the F4/80-positive macrophages, two random fields per sample were analyzed by Image J software. The IHC profiler plugin of ImageJ was used to calculate the F4/80 positive area.

[4] = system: F4/80-positive macrophages; assay: Immunohistochemical staining of eWAT for F4/80; type: in vivo, mice
Experimental: as §1

[5] = Solubility in water and octanol and log P at 25°C; settings: for solubility: 25 °C
Text: beyond changes in oral bioavailability and solubility. This is particularly relevant when […]
L og P is the logarithmic value of the oil-water partition coefficient P, which refers to the partition equilibrium of undissociated molecules in the oil and water phases. The log P value is closely related to the water solubility, membrane permeability, in vivo ADME process, and affinity of the compound to the receptor and plays a vital role in the permeation of compounds through biological membranes. The log P 0-5 range is optimal for oral drug penetration by passive diffusion, with poor water solubility for high log P compounds and poor lipid […]
experiments to exert drug activity in cells.

db/db mice [6] = assay: Glucose tolerance test (GTT); type: in vivo; parameters: blood glucose level / blood glucose AUC: unit not given here; settings: BBR 150mg/kg; for blood glucose level, mean: mean of 10 mice
[7] = In vitro dissolution studies: dynamic solubility in buffers and simulated biological fluids; type: physicochemical; parameters: BBR dissolved in CMC-Na (Figure S7a) / Ibu dissolved in CMC-Na (Figure S7b): unit not given here; settings: mean; for solubility at 0.5 h / solubility at 1 h / solubility at 2 h / solubility at 24 h: 37 °C
Experimental: Solubilities were determined by adding excess sample to 30 mL different mediums, such as HCl solution, acetate buffer, phosphate buffer, SGF, FaSSIF and FeSSIF. The configuration of various buffer solutions is shown in Supplementary Table 2. After being shaken at 400 rpm at 37 °C for 0.5, 1, 2, and 24 h, 0.3 mL of suspension was sampled and centrifuged at 14,000 rpm for 8 min to isolate mother liquor, and then analyzed by HPLC after dilution. All samples were analyzed in triplicate.

[8] = FaSSIF-V1 (fasted state simulated intestinal fluid), thermodynamic from solid, FaSSIF-V1 (pH 6.5)
[9] = FaSSIF-V1 (fasted state simulated intestinal fluid), FaSSIF-V1 (pH 6.5)
[10] = FeSSIF-V1 (fed state simulated intestinal fluid), thermodynamic from solid, FeSSIF-V1 (pH 5.0)
[11] = SGF (simulated gastric fluid), simulated gastric fluid, thermodynamic from solid, SGF (pH 2.0)
[12] = simulated gastric fluid, thermodynamic from solid, HCl solution (pH 1.0)

## COc1ccc2cc3[n+](cc2c1OC)CCc1cc2c(cc1-3)OCO2 [BBR, Berberine chloride dihydrate]
TNF-α and IL-6; 3T3-L1 adipocytes treated with TNF-α
  Levels of TNF-α and IL-6 in the supernatant: significantly reduced the levels of TNF-α and IL-6
TNF-α and IL-6; Figure 7e, TNF-α(50ng/ml)+10μM BBR, replicates
  levels of TNF-α: 111.895 and 109.61 and 99.3949 and 99.3623 and 111.275 and 110.361
TNF-α and IL-6; Figure 7f, TNF-α(50ng/ml)+10μM BBR, replicates
  levels of IL-6: 17.4575 and 16.5244 and 17.8031 and 16.7594 and 17.9828 and 16.9875
Glycerol release; db/db mice, isoproterenol stimulation
  Release of glycerol in eWAT: promoted the release of glycerol
Glycerol release; db/db+ISO+BBR 150mg/kg, individual samples 1-6
  Glycerol release in eWAT (Figure 4m): 626.099 and 631.162 and 626.943 and 630.318 and 632.849
db/db mice [1]; 150mg/kg, individual animals
  ALT: 86 U/L and 97 U/L and 103 U/L and 92 U/L and 85 U/L
  AST: 125.4 U/L and 140.1 U/L and 155.9 U/L and 114.8 U/L and 154.6 U/L and 172.8 U/L
  BUN: 8.17 mmol/L and 9.82 mmol/L and 8.93 mmol/L and 9.15 mmol/L and 9.31 mmol/L and 8.1 mmol/L
  Cr: 17.7 µmol/L and 16.3 µmol/L and 16.4 µmol/L and 17.9 µmol/L and 17.6 µmol/L
db/db mice [1]; 5 weeks of treatment, vs vehicle control
  Fasting serum ASAT, ALAT, BUN, and Cr levels: reduced fasting serum ASAT, ALAT, BUN, and Cr levels
db/db mice [2]; 1st of 6 weekly columns (time not given)
  Weekly fasting glucose levels of db/db mice (Figure 5a): 17.4 and 11.5 and 21.8 and 12.0 and 11.7 and 15.7 and 14.9 and 17.1
db/db mice [2]; 2nd of 6 weekly columns (time not given)
  Weekly fasting glucose levels of db/db mice (Figure 5a): 26.2 and 16.0 and 21.2 and 18.4 and 15.0 and 21.3 and 21.6 and 19.3 and 16.9
db/db mice [2]; 3rd of 6 weekly columns (time not given)
  Weekly fasting glucose levels of db/db mice (Figure 5a): 23.6 and 18.7 and 19.5 and 20.6 and 21.5 and 23.7 and 13.1 and 20.7 and 20.5
db/db mice [2]; 4th of 6 weekly (time not given)
  Weekly fasting glucose levels of db/db mice (Figure 5a): 19.5 and 14.4 and 15.7 and 19.0 and 17.0 and 19.2 and 9.3 and 10.1 and 18.3 and 13.0
db/db mice [2]; 5th of 6 weekly (time not given)
  Weekly fasting glucose levels of db/db mice (Figure 5a): 18.5 and 10.1 and 10.6 and 12.8 and 13.2 and 9.4 and 10.5 and 8.4 and 10.7 and 13.3
db/db mice [2]; 6th of 6 weekly (time not given)
  Weekly fasting glucose levels of db/db mice (Figure 5a): 15.5 and 9.3 and 11.4 and 15.8 and 10.5 and 10.2 and 10.0 and 9.8 and 13.5
db/db mice [2]; db/db mice, 150 mg/kg, vehicle rose from 14.4 ± 3.4 to 23.9 ± 3.4
  Fasting blood glucose level at the end of the treatment: 11.6 ± 2.4 mmol/L
db/db mice [2]; db/db mice, BJ 75 and 150 mg/kg, BBR 150 mg/kg, Ibu 150 mg/kg
  Blood (serum) glucose levels compared with vehicle: slowed the increase in glucose levels
db/db mice [3]; 150 mg/kg, individual cells
  Cell diameter (adipocyte size of eWAT): 112.956 µm and 111.168 µm and 109.684 µm and 107.318 µm and 103.404 µm and 102.799 µm and 102.56 µm and 100.649 µm and 97.9486 µm and 97.2359 µm and 94.5814 µm and 93.4958 µm and 92.5409 µm and 90.4031 µm and 87.905 µm and 126.009 µm and 123.446 µm and 119.401 µm and 113.9 µm and 113.401 µm
db/db mice [3]; BJ 75 and 150 mg/kg, BBR 150 mg/kg, Ibu 150 mg/kg
  Size of adipocytes in eWAT compared with vehicle: significantly reduced
[4]; Figure 5k, BBR 150mg/kg, individual values
  Quantification of immunohistochemical staining: 0.8707 and 0.7836 and 0.9995 and 1.2402 and 1.136 and 0.9532
[4]; db/db mice, epididymal fat pads
  Proportion of F4/80-positive macrophages around adipocytes: lower than that of the vehicle-treated db/db mice
[5]; octanol, organic solvent or mixture
  solubility: 14.3 ± 0.41 µM
[5]; octanol/water
  logP: -0.041
[5]; water
  solubility: 15.8 ± 0.81 µM
db/db mice [6]; individual mice, time column 1 of 7 (time not printed)
  blood glucose level: 16.4 and 13.5 and 14.2 and 17.7 and 15.0 and 13.4 and 16.8
db/db mice [6]; individual mice, time column 2 of 7 (time not given)
  blood glucose level: 28.7 and 28.8 and 32.6 and 33.3
db/db mice [6]; individual mice, time column 3 of 7 (time not given)
  blood glucose level: 31.2 and 22.4 and 33.3 and 29.2
db/db mice [6]; individual mice, time column 4 of 7 (time not given)
  blood glucose level: 27.9 and 29.2 and 23.4 and 32.4 and 30.4
db/db mice [6]; individual mice, time column 5 of 7 (time not given)
  blood glucose level: 28.4 and 22.4 and 33.3 and 28.6
db/db mice [6]; individual mice, time column 6 of 7 (time not given)
  blood glucose level: 23.4 and 21.0 and 20.5
db/db mice [6]; individual mice, time column 7 of 7 (time not printed)
  blood glucose level: 17.7 and 16.7 and 22.7 and 19.6 and 20.9
db/db mice [6]; time column 1 of 7 (time not printed)
  blood glucose level, mean: 15 mmol/L
db/db mice [6]; time column 2 of 7 (time not given)
  blood glucose level, mean: 30.7 mmol/L
db/db mice [6]; time column 3 of 7 (time not given)
  blood glucose level, mean: 28.4 mmol/L
db/db mice [6]; time column 4 of 7 (time not given)
  blood glucose level, mean: 27.7 mmol/L
db/db mice [6]; time column 6 of 7 (time not given)
  blood glucose level, mean: 22.6 mmol/L
db/db mice [6]; time column 7 of 7 (time not printed)
  blood glucose level, mean: 20.1 mmol/L
db/db mice [6]; Figure 5d, individual mice
  blood glucose AUC: 3443.25 and 3088.5 and 2416.5 and 3051.75 and 2479.5 and 3425.25 and 2977.5 and 2793.75 and 3132 and 3001.5
[7]; Acetate buffer (pH 4.5)
  solubility at 0.5 h: 2.08 mg/mL
  solubility at 1 h: 2.07 mg/mL
  solubility at 2 h: 1.54 mg/mL
  solubility at 24 h: 1.54 mg/mL
[7]; time 0.5
  BBR dissolved in CMC-Na (Figure S7a): 1.991
[7]; time 1
  BBR dissolved in CMC-Na (Figure S7a): 2.188
[7]; time 2
  BBR dissolved in CMC-Na (Figure S7a): 2.102
[7]; time 24
  BBR dissolved in CMC-Na (Figure S7a): 2.4551
[7]; [8]
  solubility at 0.5 h: 0.151 mg/mL
  solubility at 24 h: 0.0641 mg/mL
[7]; [9]
  solubility at 1 h: 0.126 mg/mL
  solubility at 2 h: 0.0872 mg/mL
[7]; [10]
  solubility at 0.5 h: 0.137 mg/mL
  solubility at 2 h: 0.0733 mg/mL
  solubility at 24 h: 0.0631 mg/mL
[7]; FeSSIF-V1 (fed state simulated intestinal fluid), FeSSIF-V1 (pH 5.0)
  solubility at 1 h: 0.107 mg/mL
[7]; HCl solution (pH 1.0)
  solubility at 2 h: 0.106 mg/mL
  solubility at 24 h: 0.0811 mg/mL
[7]; Phosphate buffer (pH 6.8)
  solubility at 0.5 h: 2.29 mg/mL
  solubility at 1 h: 2.38 mg/mL
  solubility at 2 h: 1.79 mg/mL
  solubility at 24 h: 1.95 mg/mL
[7]; [11]
  solubility at 0.5 h: 0.172 mg/mL
  solubility at 1 h: 0.175 mg/mL
  solubility at 2 h: 0.14 mg/mL
[7]; SGF (simulated gastric fluid), SGF (pH 2.0)
  solubility at 24 h: 0.11 mg/mL
[7]; [12]
  solubility at 0.5 h: 0.137 mg/mL
  solubility at 1 h: 0.146 mg/mL
